We go through 19 molecules from patent US20250122183A1 (Pfizer Inc., priority 2023, published 2025).

SMILES strings stand for the structures. Where two headings read alike, the source gives them in different places.

Format in all cases: biochemical
Holding throughout (conditions): replicate number in parentheses

In one assay the target is KAT6A Full length enzyme (Homo sapiens (Human), UniProt Q92794). As to the kind of experiment: KAT6A assay (SAMDI-MS acetylation of H3 1-21 peptide).
In assay [1] the target is KAT7+BRPF2+EAF6+ING5 4 protein complex (Homo sapiens (Human), UniProt O95251). As to the kind of experiment: KAT7 BRPF2 assay (SAMDI-MS acetylation of H3 1-21 peptide).
Assay [2] concerns the target KAT7+JADE1+EAF6+ING5 4 protein complex (Homo sapiens (Human), UniProt O95251). The assay is described as follows: KAT7 JADE1 assay (SAMDI-MS acetylation of H3 1-21 peptide).
For the next assay, the target named is KAT8 Full length enzyme (Homo sapiens (Human), UniProt Q9H7Z6). The assay is described as follows: KAT8 assay (SAMDI-MS acetylation of H3 1-21 peptide).
A further assay deals with KAT5 Full length enzyme (Homo sapiens (Human), UniProt Q92993). As to the kind of experiment: KAT5 assay (SAMDI-MS acetylation of H4 1-21 peptide).
The mark [3] stands for this setting: Morrison equation fit, read-out: KAT6A Ki (nM) (replicate number).
Setting [4] is: Morrison equation fit, read-out: KAT7 BRPF2 Ki (nM) (replicate number).
Where [5] appears, read: Morrison equation fit, read-out: KAT7 JADE1 Ki (nM) (replicate number).
Setting [6] is: Morrison equation fit, read-out: KAT8 Ki (nM) (replicate number).
The mark [7] stands for this setting: Morrison equation fit, read-out: KAT5 Ki (nM) (replicate number).
Where [8] appears, read: read-out: KAT6A Ki (nM) (replicate).
The mark [9] stands for this setting: read-out: KAT7 BRPF2 Ki (nM) (replicate).
Setting [10] is: read-out: KAT7 JADE1 Ki (nM) (replicate).

What is called Ki is the dissociation constant of the complex between target and ligand, obtained from inhibition or displacement.

KAT6A Full length enzyme, sequence (Q92794 other isoform, or with tags, fused parts or gaps): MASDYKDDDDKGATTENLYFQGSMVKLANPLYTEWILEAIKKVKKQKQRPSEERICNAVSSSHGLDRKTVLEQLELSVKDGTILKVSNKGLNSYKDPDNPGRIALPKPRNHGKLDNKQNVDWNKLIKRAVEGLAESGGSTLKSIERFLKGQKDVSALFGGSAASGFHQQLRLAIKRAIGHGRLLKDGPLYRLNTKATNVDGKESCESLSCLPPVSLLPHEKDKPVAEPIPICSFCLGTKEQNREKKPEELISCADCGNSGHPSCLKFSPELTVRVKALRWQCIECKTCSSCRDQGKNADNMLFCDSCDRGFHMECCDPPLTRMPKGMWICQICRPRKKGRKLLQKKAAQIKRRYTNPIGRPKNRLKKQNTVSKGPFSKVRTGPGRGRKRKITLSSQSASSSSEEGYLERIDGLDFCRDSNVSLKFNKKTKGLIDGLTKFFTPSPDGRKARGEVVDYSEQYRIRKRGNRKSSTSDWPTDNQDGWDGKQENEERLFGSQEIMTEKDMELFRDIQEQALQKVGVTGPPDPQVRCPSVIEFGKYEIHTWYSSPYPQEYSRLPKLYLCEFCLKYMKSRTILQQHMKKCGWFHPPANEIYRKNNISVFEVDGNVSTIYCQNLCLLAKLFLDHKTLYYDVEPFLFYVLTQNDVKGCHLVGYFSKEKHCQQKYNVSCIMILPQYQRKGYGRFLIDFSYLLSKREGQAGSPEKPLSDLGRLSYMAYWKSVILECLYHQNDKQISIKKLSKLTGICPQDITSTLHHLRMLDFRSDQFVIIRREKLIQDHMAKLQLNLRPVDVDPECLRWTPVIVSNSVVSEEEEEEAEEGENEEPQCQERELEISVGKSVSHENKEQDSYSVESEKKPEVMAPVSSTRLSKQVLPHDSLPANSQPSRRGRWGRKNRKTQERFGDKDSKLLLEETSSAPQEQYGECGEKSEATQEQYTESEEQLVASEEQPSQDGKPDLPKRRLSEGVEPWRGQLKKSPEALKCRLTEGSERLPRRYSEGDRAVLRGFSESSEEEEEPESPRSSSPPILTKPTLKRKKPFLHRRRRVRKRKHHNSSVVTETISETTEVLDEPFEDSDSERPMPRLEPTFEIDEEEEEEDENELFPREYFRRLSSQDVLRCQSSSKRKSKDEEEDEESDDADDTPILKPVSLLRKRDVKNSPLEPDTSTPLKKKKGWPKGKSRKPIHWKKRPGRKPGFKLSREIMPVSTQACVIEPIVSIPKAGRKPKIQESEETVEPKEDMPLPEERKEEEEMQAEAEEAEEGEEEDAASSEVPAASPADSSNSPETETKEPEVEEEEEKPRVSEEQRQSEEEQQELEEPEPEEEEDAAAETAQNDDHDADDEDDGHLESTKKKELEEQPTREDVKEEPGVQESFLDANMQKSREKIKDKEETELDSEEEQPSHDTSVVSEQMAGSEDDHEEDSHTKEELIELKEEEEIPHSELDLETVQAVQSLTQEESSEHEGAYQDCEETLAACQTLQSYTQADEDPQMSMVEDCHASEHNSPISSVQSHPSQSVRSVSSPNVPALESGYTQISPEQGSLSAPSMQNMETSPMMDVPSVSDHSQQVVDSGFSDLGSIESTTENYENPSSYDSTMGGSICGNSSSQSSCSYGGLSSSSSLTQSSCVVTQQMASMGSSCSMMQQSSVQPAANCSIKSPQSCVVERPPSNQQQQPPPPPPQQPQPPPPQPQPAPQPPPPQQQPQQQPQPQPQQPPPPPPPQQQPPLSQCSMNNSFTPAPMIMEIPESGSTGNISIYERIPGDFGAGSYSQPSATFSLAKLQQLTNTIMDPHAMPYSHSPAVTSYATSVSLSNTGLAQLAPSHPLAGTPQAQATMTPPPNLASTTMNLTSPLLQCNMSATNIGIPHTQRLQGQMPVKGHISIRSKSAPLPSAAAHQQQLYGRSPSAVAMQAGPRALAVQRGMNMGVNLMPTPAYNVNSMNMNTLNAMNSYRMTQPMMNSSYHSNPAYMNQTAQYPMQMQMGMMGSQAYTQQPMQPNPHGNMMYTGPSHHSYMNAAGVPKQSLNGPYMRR
KAT8 Full length enzyme, sequence (Q9H7Z6 whole entry): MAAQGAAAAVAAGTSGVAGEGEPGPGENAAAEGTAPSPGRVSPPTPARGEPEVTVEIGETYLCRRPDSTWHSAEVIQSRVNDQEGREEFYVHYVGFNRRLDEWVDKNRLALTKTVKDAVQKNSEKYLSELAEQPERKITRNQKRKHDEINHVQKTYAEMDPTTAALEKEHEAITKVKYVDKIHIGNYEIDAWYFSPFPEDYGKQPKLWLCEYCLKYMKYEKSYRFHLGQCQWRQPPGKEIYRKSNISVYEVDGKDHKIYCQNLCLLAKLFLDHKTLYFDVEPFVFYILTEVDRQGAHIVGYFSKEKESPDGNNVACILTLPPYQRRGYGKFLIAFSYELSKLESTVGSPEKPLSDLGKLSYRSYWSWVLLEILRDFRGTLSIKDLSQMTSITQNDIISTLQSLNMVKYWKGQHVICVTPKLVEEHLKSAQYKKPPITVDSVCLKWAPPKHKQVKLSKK
KAT5 Full length enzyme, sequence (Q92993 whole entry): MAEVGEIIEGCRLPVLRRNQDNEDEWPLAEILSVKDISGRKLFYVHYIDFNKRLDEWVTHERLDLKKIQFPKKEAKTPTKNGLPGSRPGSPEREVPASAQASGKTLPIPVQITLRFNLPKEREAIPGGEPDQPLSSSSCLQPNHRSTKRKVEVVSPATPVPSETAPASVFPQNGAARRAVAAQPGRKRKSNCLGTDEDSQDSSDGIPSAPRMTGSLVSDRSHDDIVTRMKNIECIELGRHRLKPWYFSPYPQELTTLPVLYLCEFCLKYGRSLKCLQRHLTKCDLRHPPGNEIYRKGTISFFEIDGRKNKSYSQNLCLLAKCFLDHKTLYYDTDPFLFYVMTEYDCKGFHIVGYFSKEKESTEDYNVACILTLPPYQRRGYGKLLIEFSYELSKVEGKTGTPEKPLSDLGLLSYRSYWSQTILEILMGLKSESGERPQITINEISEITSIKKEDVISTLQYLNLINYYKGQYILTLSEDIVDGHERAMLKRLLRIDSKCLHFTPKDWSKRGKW

Regarding `COc1cc2c(NS(=O)(=O)c3c(OC)cc(C4COCC(C)(C)O4)cc3OC)noc2cc1Nc1cc(C2CC2)n[nH]1` (single isomer, unassigned) [Example 183, N-{6-[(3-cyclopropyl-1 H-pyrazol-5-yl)amino]-5-methoxy-1,2-benzoxazol-3-yl}-4-(6,6-dimethyl-1,4-dioxan-2-yl)-2,6-dimethoxybenzene-1-sulfonamide], the inhibition constant (Ki) at KAT6A Full length enzyme (setting [3]) came out at 2.1 nM; in assay [1] (setting [4]) it was 2.1 nM; in assay [2] (setting [5]) it was 5.7 nM.

Consider `COc1cc2c(NS(=O)(=O)c3c(OC)cc(C(C)N4CCOCC4)cc3OC)noc2cc1Nc1cc(C2CC2)n[nH]1` (single isomer, unassigned) [Example 207, N-{6-[(3-cyclopropyl-1 H-pyrazol-5-yl)amino]-5-methoxy-1,2-benzoxazol-3-yl}-2,6-dimethoxy-4-[1-(morpholin-4-yl)ethyl]benzene-1-sulfonamide], for which the results for the Ki (at KAT6A Full length enzyme (setting [3]); in assay [1] (setting [4]); in assay [2] (setting [5])) were 2.3 nM, 4 nM and 11.5 nM, respectively.

Turning to `CCc1cc(Nc2cc3onc(NS(=O)(=O)c4cc(Cl)ccc4Cl)c3cc2OC)n[nH]1` [Example 134, 2,5-dichloro-N-{6-[(5-ethyl-1 H-pyrazol-3-yl)amino]-5-methoxy-1,2-benzoxazol-3-yl}benzene-1-sulfonamide], the Ki on KAT6A Full length enzyme (setting [3]) amounted to 34.3 nM; in assay [2] (setting [5]), 185 nM; on KAT8 Full length enzyme (setting [6]) it was 9800 nM; at KAT5 Full length enzyme (setting [7]), 4550 nM.

As to `CCc1cc(Nc2cc3onc(NS(=O)(=O)c4cc(F)ccc4Br)c3cc2OC)n[nH]1` [Example 135, 2-bromo-N-{6-[(5-ethyl-1H-pyrazol-3-yl)amino]-5-methoxy-1,2-benzoxazol-3-yl}-5-fluorobenzene-1-sulfonamide], the Ki was 52.6 nM at KAT6A Full length enzyme (setting [3]), 156 nM in assay [2] (setting [5]), more than 13000 nM on KAT8 Full length enzyme (setting [6]) and 3080 nM at KAT5 Full length enzyme (setting [7]).

Regarding `CCc1ccc(S(=O)(=O)Nc2noc3cc(Nc4cc(CC)[nH]n4)c(OC)cc23)cc1` [Example 136, 4-ethyl-N-{6-[(5-ethyl-1 H-pyrazol-3-yl)amino]-5-methoxy-1,2-benzoxazol-3-yl}benzene-1-sulfonamide], the Ki on KAT6A Full length enzyme (setting [3]) is 16.3 nM; in assay [2] (setting [5]) it was 92.7 nM; at KAT8 Full length enzyme (setting [6]), more than 13000 nM; on KAT5 Full length enzyme (setting [7]), 2940 nM.

For `CCc1cc(Nc2cc3onc(NS(=O)(=O)c4cccc(-c5ccc(OC)cc5)c4)c3cc2OC)[nH]n1` [Example 137, N-{6-[(3-ethyl-1 H-pyrazol-5-yl)amino]-5-methoxy-1,2-benzoxazol-3-yl}-4′-methoxy[1,1′-biphenyl]-3-sulfonamide], the Ki on KAT6A Full length enzyme (setting [3]) is 12.9 nM; in assay [2] (setting [5]), 9.7 nM; on KAT8 Full length enzyme (setting [6]) it was more than 13000 nM; at KAT5 Full length enzyme (setting [7]), 1650 nM.

As to `COc1cc2c(NS(=O)(=O)c3c(OC)cc([C@@H]4CCCO4)cc3OC)noc2cc1Nc1cc(C2CC2)n[nH]1` [Example 140, N-{6-[(3-cyclopropyl-1H-pyrazol-5-yl)amino]-5-methoxy-1,2-benzoxazol-3-yl}-2,6-dimethoxy-4-[(2S)-oxolan-2-yl]benzene-1-sulfonamide], the Ki on KAT6A Full length enzyme (setting [3]) turned out to be 1.5 nM; in assay [2] (setting [5]), 11.4 nM; on KAT8 Full length enzyme (setting [6]) it was 911 nM; on KAT5 Full length enzyme (setting [7]), 156 nM.

Regarding `COc1cc2c(NS(=O)(=O)c3c(OC)cc([C@H]4CCCO4)cc3OC)noc2cc1Nc1cc(C2CC2)n[nH]1` [Example 141, N-{6-[(3-cyclopropyl-1 H-pyrazol-5-yl)amino]-5-methoxy-1,2-benzoxazol-3-yl}-2,6-dimethoxy-4-[(2R)-oxolan-2-yl]benzene-1-sulfonamide], the Ki on KAT6A Full length enzyme (setting [3]) amounted to 1 nM; in assay [2] (setting [5]) it was 6.9 nM; on KAT8 Full length enzyme (setting [6]), 762 nM; at KAT5 Full length enzyme (setting [7]), 134 nM.

Consider `COc1cc2c(NS(=O)(=O)c3c(OC)cc(CN4CC(F)C4)cc3OC)noc2cc1Nc1cc(C2CC2)n[nH]1` [Example 202, N-{6-[(3-cyclopropyl-1H-pyrazol-5-yl)amino]-5-methoxy-1,2-benzoxazol-3-yl}-4-[(3-fluoroazetidin-1-yl)methyl]-2,6-dimethoxybenzene-1-sulfonamide], for which the Ki at KAT6A Full length enzyme (setting [3]) came to 0.7 nM; in assay [2] (setting [5]), 5.2 nM; at KAT8 Full length enzyme (setting [6]), 844 nM; on KAT5 Full length enzyme (setting [7]) it was 25.4 nM.

For the molecule `COc1cc2c(NS(=O)(=O)c3c(OC)cc(-c4ncccn4)cc3OC)noc2cc1Nc1cc(C2CC2)n[nH]1` [Example 211, N-{6-[(3-cyclopropyl-1 H-pyrazol-5-yl)amino]-5-methoxy-1,2-benzoxazol-3-yl}-2,6-dimethoxy-4-(pyrimidin-2-yl)benzene-1-sulfonamide], the inhibition constant Ki at KAT6A Full length enzyme (setting [3]) turned out to be 1.1 nM; in assay [2] (setting [5]), 3.7 nM; at KAT8 Full length enzyme (setting [6]), 1350 nM; at KAT5 Full length enzyme (setting [7]) it was 89.4 nM.

As for `COc1cc2c(NS(=O)(=O)c3c(OC)cc(-c4cnn(C)n4)cc3OC)noc2cc1Nc1cc(C2CC2)n[nH]1` [Example 212, N-{6-[(3-cyclopropyl-1 H-pyrazol-5-yl)amino]-5-methoxy-1,2-benzoxazol-3-yl}-2,6-dimethoxy-4-(2-methyl-2H-1,2,3-triazol-4-yl)benzene-1-sulfonamide], the Ki at KAT6A Full length enzyme (setting [3]) worked out at 0.7 nM; in assay [2] (setting [5]) it was 11.1 nM; on KAT8 Full length enzyme (setting [6]) it was 1410 nM; at KAT5 Full length enzyme (setting [7]) it was 159 nM.

Take `COc1cc2c(NS(=O)(=O)c3c(OC)cc(-c4ncc(CN(C)C)cn4)cc3OC)noc2cc1Nc1cc(C2CC2)n[nH]1` [Example 223, N-{6-[(3-cyclopropyl-1H-pyrazol-5-yl)amino]-5-methoxy-1,2-benzoxazol-3-yl}-4-{5-[(dimethylamino)methyl]pyrimidin-2-yl}-2,6-dimethoxybenzene-1-sulfonamide]: the Ki on KAT6A Full length enzyme (setting [3]) was determined as 0.4 nM; in assay [2] (setting [5]), 4 nM; on KAT8 Full length enzyme (setting [6]), 679 nM; at KAT5 Full length enzyme (setting [7]) it was 25.4 nM.

As to `COc1cc2c(NS(=O)(=O)c3c(OC)cc(-c4nccc(C(C)N(C)C)n4)cc3OC)noc2cc1Nc1cc(C2CC2)n[nH]1` (centres unmarked) [Example 227, N-{6-[(3-cyclopropyl-1 H-pyrazol-5-yl)amino]-5-methoxy-1,2-benzoxazol-3-yl}-4-{4-[1-(dimethylamino)ethyl]pyrimidin-2-yl}-2,6-dimethoxybenzene-1-sulfonamide], the Ki turned out to be 0.4 nM on KAT6A Full length enzyme (setting [3]), 6.9 nM in assay [2] (setting [5]), 3490 nM on KAT8 Full length enzyme (setting [6]) and 218 nM at KAT5 Full length enzyme (setting [7]).

As for `CCc1cc(Nc2cc3onc(NS(=O)(=O)c4c(OC)cc(-c5ccn(C)n5)cc4OC)c3cc2OC)[nH]n1` [Example 230, N-{6-[(3-ethyl-1H-pyrazol-5-yl)amino]-5-methoxy-1,2-benzoxazol-3-yl}-2,6-dimethoxy-4-(1-methyl-1 H-pyrazol-3-yl)benzene-1-sulfonamide], the Ki at KAT6A Full length enzyme (setting [3]) amounted to 1 nM; in assay [2] (setting [5]), 2.3 nM; on KAT8 Full length enzyme (setting [6]), 1960 nM; on KAT5 Full length enzyme (setting [7]), 158 nM.

As to `COc1cc2c(NS(=O)(=O)c3c(OC)cc(-n4ncccc4=O)cc3OC)noc2cc1Nc1cc(C2CC2)n[nH]1` [Example 243, N-{6-[(3-cyclopropyl-1 H-pyrazol-5-yl)amino]-5-methoxy-1,2-benzoxazol-3-yl}-2,6-dimethoxy-4-(6-oxopyridazin-1(6H)-yl)benzene-1-sulfonamide], the Ki worked out at 1.5 nM on KAT6A Full length enzyme (setting [3]), 16.9 nM in assay [2] (setting [5]), 872 nM at KAT8 Full length enzyme (setting [6]) and 168 nM on KAT5 Full length enzyme (setting [7]).

Regarding `COc1cc2c(NS(=O)(=O)c3c(OC)cc(N(C)C4CCOC4)cc3OC)noc2cc1Nc1cc(C2CC2)[nH]n1` (centres unmarked) [Example 247, N-{6-[(3-cyclopropyl-1H-pyrazol-5-yl)amino]-5-methoxy-1,2-benzoxazol-3-yl}-2,6-dimethoxy-4-[methyl(oxolan-3-yl)amino]benzene-1-sulfonamide], the Ki on KAT6A Full length enzyme (setting [8]) is 0.5 nM; in assay [1] (setting [9]), 1.7 nM; in assay [2] (setting [10]) it was 2.7 nM.

For the molecule `COc1cc2c(NS(=O)(=O)c3c(OC)cc(N(C)C4COC4)cc3OC)noc2cc1Nc1cc(C2CC2)n[nH]1` [Example 248, N-{6-[(3-cyclopropyl-1H-pyrazol-5-yl)amino]-5-methoxy-1,2-benzoxazol-3-yl}-2,6-dimethoxy-4-[methyl(oxetan-3-yl)amino]benzene-1-sulfonamide], the Ki at KAT6A Full length enzyme (setting [8]) is 1.2 nM; in assay [1] (setting [9]), 2.6 nM; in assay [2] (setting [10]) it was 5.8 nM.

`COc1cc2c(NS(=O)(=O)c3c(OC)cc(N4CC[C@@H](OC)C4)cc3OC)noc2cc1Nc1cc(C2CC2)n[nH]1` [Example 250, N-{6-[(3-cyclopropyl-1H-pyrazol-5-yl)amino]-5-methoxy-1,2-benzoxazol-3-yl}-2,6-dimethoxy-4-[(3R)-3-methoxypyrrolidin-1-yl]benzene-1-sulfonamide]: the Ki at KAT6A Full length enzyme (setting [8]) is 0.2 nM; in assay [1] (setting [9]), 0.9 nM; in assay [2] (setting [10]), 1.3 nM.

Take `COc1cc2c(NS(=O)(=O)c3c(OC)cc(C(=O)N4CC[C@H](F)C4)cc3OC)noc2cc1Nc1cc(C2CC2)n[nH]1` [Example 259, N-{6-[(3-cyclopropyl-1H-pyrazol-5-yl)amino]-5-methoxy-1,2-benzoxazol-3-yl}-4-[(3S)-3-fluoropyrrolidine-1-carbonyl]-2,6-dimethoxybenzene-1-sulfonamide]: the Ki at KAT6A Full length enzyme (setting [8]) turned out to be 1.2 nM; in assay [2] (setting [10]) it was 6.7 nM; on KAT8 Full length enzyme (read-out: KAT8 Ki (nM) (replicate)), 4990 nM; on KAT5 Full length enzyme (read-out: KAT5 Ki (nM) (replicate)), 85.1 nM.
